Measured values from US11427590B2, “Small molecule inhibitors of neutral sphingomyelinase 2 (nSMase2) for the treatment of neurodegenerative diseases” (The Johns Hopkins University, priority 2017, dated 2022).

Experiments:
[1] = test system: rat astrocytes; experiment: Inhibition of exosome release from primary astrocytes in vitro; assay type: cell-based; settings: 0.3-10 μM, 2 h after treatment, vs DMSO (0.02%)
Method: The effect of nSMase2 inhibitors on the manufacturing and release of ceramide rich exosomes from primary astrocytes was investigated as previously described. Dickens, et al. Briefly, rat astrocytes are seeded onto 6-well plates at a density of 20,000 cells/well. Twenty-four hours after seeding, astrocytes are washed with PBS and the medium changed to media without FBS. Absence of FBS mimics a trophic factor withdrawal stimulus causing the release of exosomes via a nSMase2-dependent pathway. Astrocytes are then treated with nSMase2 inhibitors at concentrations in the range 0.03-30 μM. DMSO (0.02%) is used as control. Two hours after treatment, media is collected and centrifuged at 2700 g for 15 min (4° C.). Supernatant is further centrifuged at 10,000 g for 15 min (4° C.) to remove large particles such as apoptotic bodies. Astrocyte-derived extracellular vesicles (EVs) are isolated via ultracentrifugation at 100,000 g for 3 h at 4° C. Fractions containing EV are washed twice with 5 ml PBS and the final pellet resuspended in PBS. This isolation procedure results in the isolation of EVs with a narrow size range and protein markers consistent with exosomes. Dickens, et al. The number of EVs is quantified using ZetaView Nanoparticle Tracker (Particle Metrix GmBH, Meerbusch, Germany) and the corresponding ZetaVeiw software (8.03.04.01). Nanosphere size standard 100 nm (Thermo Scientific) is used to calibrate the instrument prior to sample readings. For each sample 1 mL of the supernatant is injected into the sample-carrier cell and the particle count measured at 5 positions, with 2 cycles of reading per position. Cells are washed with PBS after every sample. Mean concentration of EVs/mL (±SEM) is calculated from 6 replicates. This screening assay is reliable with a Z′=0.75.
Referring now to FIG. 4A and FIG. 4B, the ability of compound 38 and several of its analogs to inhibit exosome release in vitro was evaluated as previously described. […] Two hours after treatment, exosomes were isolated from the media and quantified using ZetaView Nanoparticle Tracker. The mean concentration of exosomes (EVs/mL±SEM) was calculated from 6 replicate experiments (see FIG. 4). […] Baseline exosome release can be variable between experiments; as a result, inhibition is always compared relative to vehicle treatment within the same experiment. Structures of compounds with their corresponding IC50s are provided in the second row of FIG. 4.

[2] = Phase I metabolic stability in mouse liver microsomes; assay type: in vitro ADME; settings: 37° C.
Method: (§1) Phase I metabolic stability in both mouse and human liver microsomes was performed as described previously. Rais et al. Briefly, compounds are spiked in liver microsomes (mouse, human) and incubated in an orbital shaker at 37° C. […] Compound disappearance is monitored over time using LC/MS/MS.

[3] = Phase I metabolic stability in human liver microsomes; assay type: in vitro ADME; settings: 37° C.
Method: as §1

[4] = background statement on known inhibitor; cited from earlier work
[5] = test system: panel of 44 selected targets
[6] = test system: alkaline phosphatase; experiment: Inhibition of related enzyme alkaline phosphatase; settings: related enzyme (phosphomonoesterase)
Method: Phosphorylcholine undergoes dephosphorylation in a reaction catalyzed by alkaline phosphatase (4 U/mL) to produce choline which in turn is oxidized by choline oxidase (0.1 U/mL) to betaine and hydrogen peroxide (H2O2). Hydrogen peroxide is made to react with Amplex red (50 μM) in the presence of horseradish peroxidase (HRP, 1 U/mL) to generate the fluorescent molecule resorufin. Generation of fluorescence is monitored by measuring relative florescence units (RFU) with excitation at 530 nm and emission at 590 nm. Extent of fluorescence is directly proportional to the extent of SM hydrolysis. Substrate stock solution is prepared in 2% Triton X-100 and sonicated for 1 min. Reactions are carried out for 1 h at 37° C. in 100 mM Tris-HCl pH 7.4, 10 mM MgCl2, 0.2% Triton X-100. This assay has been optimized in 384-well format (50 μL total volume per well) under conditions where nSMase2-catalyzed hydrolysis of SM is linear with respect to nSMase2 concentration, time of incubation and SM concentration (FIGS. 3A-3C). The assay has high reliability (Z′=0.8-0.9). It is used for compound screening, IC50 determinations and mode of inhibition studies. IC50 determinations are carried out in duplicate eight-point dose response curves. A counter screen is concomitantly carried out to identify false positives resulting from inhibition of the coupling enzymes. […]

[7] = target: acid sphinghomyelinase (Homo sapiens (Human), UniProt P17405); experiment: Inhibition of related enzyme acid sphingomyelinase; assay type: biochemical; settings: related enzyme (phosphodiesterase)
[8] = Pharmacokinetics, plasma and brain levels in mice
Method: Blood was obtained via cardiac puncture and brain tissue was dissected at 0.25, 0.5, 1, 2, 4, 6 and 8 h post dose (n=3 per gender and time point). Plasma was harvested from blood by centrifugation. Subsequently, samples were extracted from plasma and brain by a one-step protein precipitation using acetonitrile followed by vortexing for […] and centrifugation (10,000 g for 10 min) as we have described previously. Rais, et al. Once extracted, the samples were reconstituted into a mobile phase and analyzed via LC/MS/MS. Plasma concentrations (nM) as well as tissue concentrations (pmol/g) were determined and plots of mean plasma concentration vs. time were constructed for PK analysis. Non-compartmental-analysis modules in WinNonlin® (version 5.3) were used to assess pharmacokinetic parameters including maximal concentration (Cmax), time to Cmax (Tmax), area under the curve extrapolated to infinity (AUC0-∞) and brain-to-plasma (B/P) ratios.

[9] = test system: GFAP-GFP mice; experiment: Inhibition of exosome release in vivo after striatal IL-1β injection; settings: mouse
Method: Striatal injections of IL-1β and exosome measurements are performed as previously described by our group in adult (2-3 month) male GFAP-GFP mice (Jackson Laboratories). Dickens, et al.; McCluskey, et al. Mice are anesthetized with 3% Isoflourane (Baxter) in oxygen (Airgas), and placed in a stereotaxic frame (Stoelting Co.). A small burr hole is drilled in the skull over the left striatum using a dental drill (Fine Scientific Tools). IL1β (0.1 ng/3 μl) is injected (total volume of 3 μl) at the rate 0.5 μl/min via a pulled glass capillary tip diameter <50 μm using the stereotaxic coordinates: A/P+1; M/L-2; -3 D/V. Following infusion, the capillary is held in place for 5 min to allow for solution to diffuse into the tissue. Animals are sacrificed at 2, 12 or 24 h by an overdose of anesthetic, and transcardially perfused with ice-cold saline containing heparin (20 μl per 100 ml, Sigma). Blood is rapidly isolated and flash frozen. […]
GFAP-GFP mice that release green EVs from astrocytes into the systemic circulation were used so that exosome release from astrocytes in plasma can be followed. […] The concentration of immunoprecipitated GFP+ EVs is quantified using ZetaView nanoparticle tracking analysis (Particle Metrix) as described in the cell-based exosome release. […]

acid sphinghomyelinase, sequence (P17405 47-631): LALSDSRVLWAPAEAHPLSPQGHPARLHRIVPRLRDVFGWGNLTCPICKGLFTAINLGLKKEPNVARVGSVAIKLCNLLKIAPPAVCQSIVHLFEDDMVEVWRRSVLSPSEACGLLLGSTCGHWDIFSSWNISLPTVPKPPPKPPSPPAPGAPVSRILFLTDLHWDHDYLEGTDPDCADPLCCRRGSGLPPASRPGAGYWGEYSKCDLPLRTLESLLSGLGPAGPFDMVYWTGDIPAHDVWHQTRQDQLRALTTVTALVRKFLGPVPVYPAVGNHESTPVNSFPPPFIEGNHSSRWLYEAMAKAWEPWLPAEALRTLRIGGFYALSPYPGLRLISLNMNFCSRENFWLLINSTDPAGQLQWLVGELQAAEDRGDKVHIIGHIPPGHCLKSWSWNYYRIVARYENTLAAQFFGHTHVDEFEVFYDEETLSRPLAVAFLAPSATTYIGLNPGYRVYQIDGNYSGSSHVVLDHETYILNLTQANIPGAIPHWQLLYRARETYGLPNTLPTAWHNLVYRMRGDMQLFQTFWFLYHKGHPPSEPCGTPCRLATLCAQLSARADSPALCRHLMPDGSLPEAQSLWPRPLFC

| SMILES | exosome release from astrocytes [1] | Mouse Liver Microsome (+) NADPH % Remaining at 60 min [2] [%] | Human Liver Microsome (+) NADPH Remaining at 60 min [3] [%] | other results |
| --- | --- | --- | --- | --- |
| COc1ccc(-c2c(-c3ccc(C)cc3)nc3c(N4CC[C@@H](NC(C)=O)C4)cc(C)nn23)cc1OC [compound 62, (R)—N-(1-(3-(3,4-dimethoxyphenyl)-6-methyl-2-(p-tolyl)imidazo[1,2-b]pyridazin-8-yl)pyrrolidin-3-yl)acetamide] | decreased the number of exosomes released from astrocytes in a dose dependent manner | 53 ± 6 | 28 ± 5 | – |
| O=C(/C=C/c1ccc(/C=C/C(=O)Nc2ccc(C3=NCCN3)cc2)cc1)Nc1ccc(C2=NCCN2)cc1 [GW4869] | – | – | – | solubility [4]: poor solubility |
| COc1ccc(-c2c(C)nc3c(N4CC[C@@H](NS(=O)(=O)c5ccc(C(F)(F)F)cc5)C4)cc(C)nn23)cc1OC [compound 30, (R)—N-(1-(3-(3,4-dimethoxyphenyl)-2,6-dimethylimidazo[1,2-b]pyridazin-8-yl)pyrrolidin-3-yl)-4-(trifluoromethyl)benzenesulfonamide] | decreased the number of exosomes released from astrocytes in a dose dependent manner | 15 ± 5 | 61 ± 3 | – |
| COc1ccc(-c2c(C)nc3c(N4CC[C@@H](NC(=O)Oc5ccccc5)C4)cc(C)nn23)cc1OC [compound 38, Phenyl (R)-(1-(3-(3,4-dimethoxyphenyl)-2,6-dimethylimidazo[1,2-b]pyridazin-8-yl)pyrrolidin-3-yl) carbamate] | decreased the number of exosomes released from astrocytes in a dose dependent manner | – | 103 ± 14 | inhibition of positive hits ([5]; 10 μM, all positive hits): less than 100%; segregation in potency between off targets and nSMase2 ([5]; off targets vs nSMase2): ≥ 20 fold; inhibition of alkaline phosphatase [6]: not inhibiting; inhibition of acid sphinghomyelinase [7]: not inhibiting; systemic exposure ([8]; 10 mg/kg i.p.): high systemic exposures; brain exposure ([8]; 10 mg/kg peroral): high brain exposures; plasma exposure ([8]; 10 mg/kg peroral): high plasma exposures; exosomes in plasma after striatal IL-1β injection [9]: significantly reduced the increased exosomes |
| COc1ccc(-c2c(C)nc3c(N4CCCC4)cc(C)nn23)cc1OC [compound 44, 3-(3,4-dimethoxyphenyl)-2,6-dimethyl-8-(pyrrolidin-1-yl)imidazo[1,2-b]pyridazine] | decreased the number of exosomes released from astrocytes in a dose dependent manner | 1 ± 0 | 58 ± 4 | – |
